# Measurements taken from PubChem BioAssay (NCI).
#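 The compound was tested at five concentrations on cells cultured in 96-well plates, with a 48-hour exposure period. TGI marks complete inhibition of growth.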
# Legend:
# Test in all cases: NCI anticancer screen, dose series, 48 h
# [1] = system: SNB-75 CNS
# [2] = system: MALME-3M melanoma
# [3] = system: A498 renal
# [4] = system: HOP-62 NSCLC
# [5] = system: SW-620 colon
# [6] = system: OVCAR-3 ovarian
# [7] = system: NCI-H23 lung
# [8] = system: UO-31 renal
# [9] = system: LOX IMVI melanoma
# [10] = system: TK-10 renal
# [11] = system: RPMI-8226 leukemia
# [12] = system: U251 CNS
# [13] = system: HT29 colon
# [14] = system: UACC-257 melanoma
# [15] = system: UACC-62 melanoma
# [16] = system: NCI-H460 lung
# [17] = system: HS 578T breast
# [18] = system: K-562 leukemia
# [19] = system: SR leukemia
# [20] = system: HCC-2998 colon
# [21] = system: HCT-116 colon
# [22] = system: SF-539 CNS
# [23] = system: RXF 393 renal
# [24] = system: SK-OV-3 ovarian
# [25] = system: SK-MEL-2 melanoma
# [26] = system: HCT-15 colon
# [27] = system: MOLT-4 leukemia
# [28] = system: SK-MEL-5 melanoma
# [29] = system: CCRF-CEM leukemia
# [30] = system: OVCAR-8 ovarian
# [31] = system: SF-295 CNS
# [32] = system: COLO 205 colon
# [33] = system: EKVX NSCLC
# [34] = system: NCI/ADR-RES ovarian
# [35] = system: KM12 colon
# [36] = system: ACHN renal
# [37] = system: M14 melanoma
# [38] = system: MDA-N
# [39] = system: CAKI-1 renal
# [40] = system: 786-0 renal
# [41] = system: SNB-19 CNS
# [42] = system: SN12C renal
# [43] = system: SK-MEL-28 melanoma
# [44] = system: DU-145 prostate
# [45] = system: HOP-92 NSCLC
# [46] = system: MDA-MB-435
# [47] = system: MDA-MB-231 breast
# [48] = system: OVCAR-5 ovarian
# [49] = system: A549 NSCLC
# [50] = system: MCF7 breast
# [51] = system: BT-549 breast
# [52] = system: NCI-H522 lung
# [53] = system: IGROV1 ovarian
# [54] = system: SF-268 CNS
# [55] = system: HL-60(TB) leukemia
# [56] = system: PC-3 prostate
# [57] = system: NCI-H226 lung
# [58] = system: OVCAR-4 ovarian
# [59] = system: T-47D breast
smiles,measurement,setting,value
O=[N+]([O-])c1ccc2sc(C=Nc3ccc(O)cc3)cc2c1,TGI,[1],49.9 µM
same,TGI,[2],> 100 µM
same,TGI,[3],> 100 µM
same,TGI,[4],> 100 µM
same,TGI,[5],43.9 µM
same,TGI,[6],28.6 µM
same,TGI,[7],> 100 µM
same,TGI,[8],> 100 µM
same,TGI,[9],51.2 µM
same,TGI,[10],> 100 µM
same,TGI,[11],79.7 µM
same,TGI,[12],42.7 µM
same,TGI,[13],> 100 µM
same,TGI,[14],56.2 µM
same,TGI,[15],61.9 µM
same,TGI,[16],> 100 µM
same,TGI,[17],66.4 µM
same,TGI,[18],43 µM
same,TGI,[19],97 µM
same,TGI,[20],56.6 µM
same,TGI,[21],> 100 µM
same,TGI,[22],55.4 µM
same,TGI,[23],57.9 µM
same,TGI,[24],> 100 µM
same,TGI,[25],59 µM
same,TGI,[26],> 100 µM
same,TGI,[27],44.6 µM
same,TGI,[28],68 µM
same,TGI,[29],59.6 µM
same,TGI,[30],> 100 µM
same,TGI,[31],> 100 µM
same,TGI,[32],> 100 µM
same,TGI,[33],> 100 µM
same,TGI,[34],> 100 µM
same,TGI,[35],> 100 µM
same,TGI,[36],> 100 µM
same,TGI,[37],> 100 µM
same,TGI,[38],80.6 µM
same,TGI,[39],43.5 µM
same,TGI,[40],40.4 µM
same,TGI,[41],> 100 µM
same,TGI,[42],> 100 µM
same,TGI,[43],> 100 µM
same,TGI,[44],> 100 µM
same,TGI,[45],> 100 µM
same,TGI,[46],34.3 µM
same,TGI,[47],44.5 µM
same,TGI,[48],> 100 µM
same,TGI,[49],> 100 µM
same,TGI,[50],47.7 µM
same,TGI,[51],> 100 µM
same,TGI,[52],> 100 µM
same,TGI,[53],> 100 µM
same,TGI,[54],> 100 µM
same,TGI,[55],53.2 µM
same,TGI,[56],> 100 µM
O=C1CSC(c2ccc([N+](=O)[O-])cc2)N1c1nc(-c2ccc3c(c2)CCCC3)cs1 (stereo not given),TGI,[1],> 100 µM
same,TGI,[2],> 100 µM
same,TGI,[3],> 100 µM
same,TGI,[4],> 100 µM
same,TGI,[5],> 100 µM
same,TGI,[6],> 100 µM
same,TGI,[7],> 100 µM
same,TGI,[8],> 100 µM
same,TGI,[9],> 100 µM
same,TGI,[10],> 100 µM
same,TGI,[11],> 100 µM
same,TGI,[12],> 100 µM
same,TGI,[13],> 100 µM
same,TGI,[14],> 100 µM
same,TGI,[15],> 100 µM
same,TGI,[16],> 100 µM
same,TGI,[17],> 100 µM
same,TGI,[18],> 100 µM
same,TGI,[19],> 100 µM
same,TGI,[20],> 100 µM
same,TGI,[21],> 100 µM
same,TGI,[22],81.8 µM
same,TGI,[23],> 100 µM
same,TGI,[25],> 100 µM
same,TGI,[26],> 100 µM
same,TGI,[27],> 100 µM
same,TGI,[28],> 100 µM
same,TGI,[30],> 100 µM
same,TGI,[31],> 100 µM
same,TGI,[32],> 100 µM
same,TGI,[33],> 100 µM
same,TGI,[34],> 100 µM
same,TGI,[35],> 100 µM
same,TGI,[36],> 100 µM
same,TGI,[38],> 100 µM
same,TGI,[57],> 100 µM
same,TGI,[39],> 100 µM
same,TGI,[40],> 100 µM
same,TGI,[41],> 100 µM
same,TGI,[42],> 100 µM
same,TGI,[43],> 100 µM
same,TGI,[44],> 100 µM
same,TGI,[58],> 100 µM
same,TGI,[46],> 100 µM
same,TGI,[47],> 100 µM
same,TGI,[48],> 100 µM
same,TGI,[50],> 100 µM
same,TGI,[51],> 100 µM
same,TGI,[52],> 100 µM
same,TGI,[53],> 100 µM
same,TGI,[54],> 100 µM
same,TGI,[55],> 100 µM
same,TGI,[56],> 100 µM
COc1ccc(NC(=S)Nc2ccccc2)cc1,TGI,[1],> 100 µM
same,TGI,[2],> 100 µM
same,TGI,[3],> 100 µM
same,TGI,[4],> 100 µM
same,TGI,[5],> 100 µM
same,TGI,[6],> 100 µM
same,TGI,[7],> 100 µM
same,TGI,[8],> 100 µM
same,TGI,[9],> 100 µM
same,TGI,[10],> 100 µM
same,TGI,[11],> 100 µM
same,TGI,[12],> 100 µM
same,TGI,[13],> 100 µM
same,TGI,[14],> 100 µM
same,TGI,[15],> 100 µM
same,TGI,[16],> 100 µM
same,TGI,[17],> 100 µM
same,TGI,[18],> 100 µM
same,TGI,[19],> 100 µM
same,TGI,[20],> 100 µM
same,TGI,[21],> 100 µM
same,TGI,[22],> 100 µM
same,TGI,[23],> 100 µM
same,TGI,[24],> 100 µM
same,TGI,[25],> 100 µM
same,TGI,[26],> 100 µM
same,TGI,[28],> 100 µM
same,TGI,[30],> 100 µM
same,TGI,[31],> 100 µM
same,TGI,[32],> 100 µM
same,TGI,[33],> 100 µM
same,TGI,[34],> 100 µM
same,TGI,[36],> 100 µM
same,TGI,[37],> 100 µM
same,TGI,[38],> 100 µM
same,TGI,[57],> 100 µM
same,TGI,[39],> 100 µM
same,TGI,[40],> 100 µM
same,TGI,[41],> 100 µM
same,TGI,[42],> 100 µM
same,TGI,[43],> 100 µM
same,TGI,[44],> 100 µM
same,TGI,[58],> 100 µM
same,TGI,[45],> 100 µM
same,TGI,[46],> 100 µM
same,TGI,[47],> 100 µM
same,TGI,[48],> 100 µM
same,TGI,[49],> 100 µM
same,TGI,[50],> 100 µM
same,TGI,[51],> 100 µM
same,TGI,[52],> 100 µM
same,TGI,[53],> 100 µM
same,TGI,[54],> 100 µM
same,TGI,[55],> 100 µM
same,TGI,[56],> 100 µM
C#CCCCCC#Cc1ccccc1C(=O)C=[N+]=[N-],TGI,[1],> 100 µM
same,TGI,[3],> 100 µM
same,TGI,[4],> 100 µM
same,TGI,[5],> 100 µM
same,TGI,[7],> 100 µM
same,TGI,[8],> 100 µM
same,TGI,[10],> 100 µM
same,TGI,[11],> 100 µM
same,TGI,[12],> 100 µM
same,TGI,[13],> 100 µM
same,TGI,[14],> 100 µM
same,TGI,[15],> 100 µM
same,TGI,[16],> 100 µM
same,TGI,[17],> 100 µM
same,TGI,[18],> 100 µM
same,TGI,[20],> 100 µM
same,TGI,[21],> 100 µM
same,TGI,[22],> 100 µM
same,TGI,[23],> 100 µM
same,TGI,[24],> 100 µM
same,TGI,[25],> 100 µM
same,TGI,[26],> 100 µM
same,TGI,[27],> 100 µM
same,TGI,[28],> 100 µM
same,TGI,[30],> 100 µM
same,TGI,[31],> 100 µM
same,TGI,[32],> 100 µM
same,TGI,[33],> 100 µM
same,TGI,[59],> 100 µM
same,TGI,[36],> 100 µM
same,TGI,[37],> 100 µM
same,TGI,[38],> 100 µM
same,TGI,[57],> 100 µM
same,TGI,[39],> 100 µM
same,TGI,[40],> 100 µM
same,TGI,[41],> 100 µM
same,TGI,[42],> 100 µM
same,TGI,[43],> 100 µM
same,TGI,[44],> 100 µM
same,TGI,[58],> 100 µM
same,TGI,[45],> 100 µM
same,TGI,[46],> 100 µM
same,TGI,[47],> 100 µM
same,TGI,[48],> 100 µM
same,TGI,[49],> 100 µM
same,TGI,[50],> 100 µM
same,TGI,[51],> 100 µM
same,TGI,[52],> 100 µM
same,TGI,[53],> 100 µM
same,TGI,[54],> 100 µM
same,TGI,[56],> 100 µM
COc1ccc(/C=C/c2cc(OC)c(OC)c(OC)c2)cc1O[Si](C)(C)C(C)(C)C,TGI,[1],> 100 µM
same,TGI,[3],94.1 µM
same,TGI,[4],> 100 µM
same,TGI,[5],17.3 µM
same,TGI,[7],> 100 µM
same,TGI,[8],> 100 µM
same,TGI,[10],> 100 µM
same,TGI,[11],3.68 µM
same,TGI,[12],26.6 µM
same,TGI,[13],> 100 µM
same,TGI,[14],37.3 µM
same,TGI,[15],14.1 µM
same,TGI,[16],13.4 µM
same,TGI,[17],8.18 µM
same,TGI,[20],> 100 µM
same,TGI,[21],14.2 µM
same,TGI,[22],5.71 µM
same,TGI,[23],9.02 µM
same,TGI,[24],> 100 µM
same,TGI,[25],> 100 µM
same,TGI,[26],21.7 µM
same,TGI,[27],22.2 µM
same,TGI,[28],4.44 µM
same,TGI,[30],10.8 µM
same,TGI,[31],83.8 µM
same,TGI,[32],32.7 µM
same,TGI,[33],> 100 µM
same,TGI,[59],> 100 µM
same,TGI,[36],34 µM
same,TGI,[37],29.3 µM
same,TGI,[38],6.25 µM
same,TGI,[57],47.7 µM
same,TGI,[39],> 100 µM
same,TGI,[40],30.7 µM
same,TGI,[41],> 100 µM
same,TGI,[42],74.5 µM
same,TGI,[43],> 100 µM
same,TGI,[44],> 100 µM
same,TGI,[58],> 100 µM
same,TGI,[45],85.4 µM
same,TGI,[46],5.86 µM
same,TGI,[47],> 100 µM
same,TGI,[48],> 100 µM
same,TGI,[49],> 100 µM
same,TGI,[50],25.6 µM
same,TGI,[51],64 µM
same,TGI,[52],8.08 µM
same,TGI,[53],> 100 µM
same,TGI,[54],> 100 µM
same,TGI,[56],> 100 µM
